Laboratory results published in patent publication US20220220106A1, “QUINOLINE COMPOUNDS AND PHARMACEUTICAL COMPOSITIONS AND USES THEREOF” (Academy of Military Medical Sciences, priority 2019, published 2022).
Like-named read-outs stand apart in the source and are kept apart here.

Assay: In vivo drug metabolism (pharmacokinetics) in mice, iv and po
Set-up: species or system C57 male mice
Settings: for apparent volume of distribution (Vss), in words / clearance rate (CL), in words / area under curve (AUC) through injection administration route, in words: iv; for Tmax / AUC / clearance / half-life / Vd / C0 / Cmax: male, plasma; for Tmax: C57, mouse, 10 mg/kg; for AUC / clearance / half-life / Vd / C0 / Cmax: mouse; for clearance: read-out: CL iv; for Vd: read-out: Vss iv; for F po: oral bioavailability, po 10 mg/kg vs iv 1 mg/kg
Protocol: Experimental animals: C57 male mice (purchased from Beijing Vital River Laboratory Animal Technology Co., Ltd.), bred for 6-8 weeks and weighing 20-30 g, 3 mice in each group of iv/po groups, a total of 6 groups.
Preparation of Sample Solutions:
(1) Preparation of sample solution (1 mg/kg, 5 mL/kg) for injection (iv): 1 mg of the sample to be tested was dissolved in 0.5 mL DMSO, mixed by a vortex mixer, and treated ultrasonically to obtain a stock solution (2 mg/mL); 0.10 mL of the stock solution (2 mg/mL) was added to a vial, then 0.4 mL of PEG400 and 0.5 mL of water were added, and mixed by a vortex shaker, treated ultrasonically to obtain a sample solution with a concentration of 0.2 mg/mL.
(2) Preparation of sample solution (10 mg/kg, 10 mL/kg) for oral administration (po): 1 mg of the sample to be tested was dissolved in 1 mL of “0.5% CMC/0.1% Tween-80 aqueous solution”, mixed by a vortex mixer, and treated ultrasonically to obtain a suspension of the sample to be tested with a concentration of 1 mg/mL.
Liquid Chromatography Method:
(1) Chromatographic column: Waters XSELECT CSH C18, 2.5 μm 2.1×50 mm chromatographic column.
(2) Mobile phase: Phase A: 5% acetonitrile in aqueous solution (0.1% formic acid); Phase B: 95% acetonitrile in aqueous solution (0.1% formic acid).
(3) Flow rate: 0.6 mL/min.
(4) Sampling volume: 20 μL.
For each compound, po group and iv group were set for administration. All experimental animals were fasted overnight before administration, and all administration was performed at room temperature.
Sampling time: for iv group, sampling was performed at 0.083, 0.25, 0.5, 1, 2, 4, 8 and 24 hours after injection administration (iv); for po group, sample was performed at 0.25, 0.5, 1, 2, 4, 8 and 24 hours after oral administration (po).
(1) At each time point, about 0.03 mL of blood was collected. The blood of each sample was transferred to a plastic microcentrifuge tube containing heparin sodium anticoagulant, mixed well with the anticoagulant, and then cooled on ice and centrifuged.
(2) The blood sample was centrifuged at 4000 rpm for 5 minutes at 4° C. to obtain plasma.
(3) The samples was stored in a refrigerator at −75±15° C. for later test.
Analysis and Identification:
The mixed solution of acetonitrile and water (1:1) was used to dilute the stock solution to prepare a series of working solutions.
3 μL of working solution (5, 10, 20, 50, 100, 500, 1000, 5000, 10000 ng/mL) was added to 30 μL of C57 mouse blank plasma to obtain a standard solution with a concentration of 0.5-1000 ng/mL (0.5, 1, 2, 5, 10, 50, 100, 500, 1000 ng/mL), in total of 33 μL. Four quality control samples of 1 ng/mL, 2 ng/mL, 50 ng/mL and 800 ng/mL were used to calibrate the standard curve.
(2) The quality control samples were prepared on the day of analysis, and the method was the same as the standard solution.
(3) 200 μL of acetonitrile containing internal standard solution was added to 33 μL of standard samples, 33 μL of quality control samples and 33 μL of unknown sample (30 μL of plasma and 3 μL of blank solution) to precipitate protein, respectively. The samples were mixed by a vortex mixer for 30 seconds and mixed well. The precipitated samples were centrifuged for 15 minutes at 4° C. and 4000 rpm.
(4) The supernatant was pipetted quantitatively and diluted by 3 times with water, then the diluted supernatant was loaded and quantitatively analyzed by liquid chromatography-mass spectrometry technology.
(5) Detection data were obtained, and pharmacokinetic parameters such as T1/2, Cmax, AUC, AUC, CL, Vss, F were calculated.

[1] = po, po 10 mg/kg, read-out: Tmax po
[2] = po, po, read-out: peak time Tmax
[3] = iv 1 mg/kg, C57 mice, read-out: AUC iv
[4] = iv 1 mg/kg, C57 mice, read-out: T1/2 iv (converted)
[5] = po 10 mg/kg, C57 mice, read-out: AUC po
[6] = po 10 mg/kg, C57 mice, read-out: T1/2 po (converted)

Structure (SMILES)	apparent volume of distribution (Vss), in words (C57 mice)	clearance rate (CL), in words (C57 mice)	Tmax [1]	Tmax [2]	AUC [3]	clearance (iv 1 mg/kg, C57 mice)	half-life [4]	Vd (iv 1 mg/kg, C57 mice)	AUC [5]	half-life [6]	C0 (iv 1 mg/kg, C57 mice)	Cmax (po 10 mg/kg, C57 mice)	F po (C57 mice)	area under curve (AUC) through injection administration route, in words (C57 mice)	AUC through oral administration, in words (po, C57 mice)	half-life T1/2, in words (C57 mice)	highest blood concentration C0/Cmax, in words (C57 mice)
CCC(=O)Nc1ccc(-c2ccc3ncc4ccc(=O)n(-c5cccc(C(F)(F)F)c5)c4c3c2)cn1 [HTL-6-45, 9-[3-(6-propionylamino)pyridyl]-2-oxo-1-[3-(trifluoromethyl)phenyl]-1,2-dihydrobenzo[h][1,6]naphthyridine]	slightly higher	relatively higher clearance rate	15 min	15 min	95 ng·h/mL	176 mL/min/kg	19.4 min	3.25 L/kg	35.4 ng·h/mL	50.4 min	398 ng/mL	42.9 ng/mL	3.89%				
O=c1ccc2cnc3ccc(-c4ccc(F)nc4)cc3c2n1-c1cccc(C(F)(F)F)c1 [HTL-7-01, 9-[3-(6-fluoro)pyridyl]-2-oxo-1-[3-(trifluoromethyl)phenyl]-1,2-dihydrobenzo[h][1,6]naphthyridine]	lower		30 min	> 30 min	592 ng·h/mL	27.8 mL/min/kg	63 min	2.29 L/kg	699 ng·h/mL	121 min	574 ng/mL	298 ng/mL	12.2%	relatively high	lower		
CN1CCN(c2ccc(-c3ccc4ncc5ccc(=O)n(-c6cccc(C(F)(F)F)c6)c5c4c3)cn2)CC1 [HTL-7-17, 9-{3-[6-(4-methylpiperazin-1-yl)pyridyl]}-2-oxo-1-[3-(trifluoromethyl)phenyl]-1,2-dihydrobenzo[h][1,6]naphthyridine]	slightly higher	relatively higher clearance rate	20 min	19.8 min	168 ng·h/mL	99 mL/min/kg	43.1 min	3.59 L/kg	357 ng·h/mL	94.8 min	364 ng/mL	144 ng/mL					
COc1ccc(-c2ccc3ncc4ccc(=O)n(-c5cccc(C(F)(F)F)c5)c4c3c2)cn1 [HTL-7-03, 9-[3-(6-methoxy)pyridyl]-2-oxo-1-[3-(trifluoromethyl)phenyl]-1,2-dihydrobenzo[h][1,6]naphthyridine]	slightly higher		40 min	> 30 min	668 ng·h/mL	24.1 mL/min/kg	110 min	3.24 L/kg	1640 ng·h/mL	74.4 min	596 ng/mL	565 ng/mL		relatively high		relatively longer half-life	
O=c1ccc2cnc3ccc(-c4cccnc4F)cc3c2n1-c1cccc(C(F)(F)F)c1 [HTL-6-48, 9-[3-(2-fluoro)pyridyl]-2-oxo-1-[3-(trifluoromethyl)phenyl]-1,2-dihydrobenzo [h][1,6]naphthyridine]	lower		15 min	15 min	651 ng·h/mL	25.6 mL/min/kg	50.4 min	1.59 L/kg	1330 ng·h/mL	59.4 min	651 ng/mL	1290 ng/mL		relatively high			relatively high
